Source: patent US8853230B2, “Inhibitors of JAK” (Portola Pharmaceuticals, Inc., priority 2009, dated 2014)

Legend:
Type in all cases: biochemical
JAK1 = molecular target: T1, JAK1 (Homo sapiens, UniProt P23458); assay: Z'-LYTE kinase assay, JAK1 tyrosine phosphorylation activity; details: read-out: JAK 1 IC50
T1 construct: 5 μl of catalytic domain recombinant Kinase enzyme+Tyr peptide substrate (Invitrogen, Calif.); purchased Invitrogen
Protocol: (§1) JAK and TYK2 tyrosine phosphorylation activity is measured using the Z′-LYTE™ Technology developed by Invitrogen Corporation (Carlsbad, Calif.). For JAK1, JAK2 and JAK3 the Z′-LYTE™ Kinase Assay Kit-Tyr6 Peptide (part number PV4122) was used. For TYK2 the Z′-LYTE™ Kinase Assay Kit-Tyr6 Peptide (part number PV3192) was used. The Z′-LYTE™ biochemical assay employs a fluorescence resonance energy transfer (FRET) coupled-enzyme format and is based on the differential sensitivity of phosphorylated and non-phosphorylated peptides to proteolitic cleavage. The assay uses a synthetic peptide substrate that is labelled with a donor fluorophore (coumarin) and an acceptor fluorophore (fluorescein) that make up a FRET pair. In the primary reaction (the Kinase Reaction), the kinase transfers the γ-phosphate of ATP to a single tyrosine residue on the substrate, while the presence of a kinase inhibitor in the primary reaction suppresses phosphorylation. In the secondary reaction (the Development Reaction), a site-specific protease (the Development Reagent) is added. The development buffer quenches the Kinase Reaction, while the protease recognizes and cleaves non-phosphorylated Z′-LYTE™ peptide substrate. Cleavage disrupts FRET between the donor and acceptor fluorophores on the non-phosphoryleted substrate, while uncleaved, phosphorylated substrate maintains FRET.
(§2) To test the ability of candidate molecules to inhibit JAK tyrosine phosphorylation activity, molecules are reconstituted in 100% DMSO and serially diluted 1:10 in polypropylene v-bottom microtiter plates. The candidate molecules are then diluted 1:25 into kinase buffer and 2.5 μl transferred into duplicate wells of a 384 well low volume black microtiter assay plate (Corning, USA). The final DMSO concentration in the assay is 1%. The kinase reaction contains 2.5 μl of a candidate molecule, 5 μl of catalytic domain recombinant Kinase enzyme+Tyr peptide substrate (Invitrogen, Calif.) and 2.5 μl ATP (Invitrogen, Calif.). The kinase reaction is allowed to procede for 1 hour at room temperature. The protease reaction is initiated by the addition of 5 μl Development Reagent (Invitrogen, Calif.). After 1 hour incubation at room temperature the fluorescence is measured using a FlexStation plate reader (Molecular Devices, Sunnyvale, Calif.). The reader settings used are as follows: Fluorescence mode, endpoint, top read, excitation 400 nm, emission 445 nm and 520 nm, Auto Cutoff 435 nm and 515 nm, PMT sensitivity high, 6 reads per well. Inhibition of JAK activity is calculated as the percent phosphorylation of substrate in the presence of inhibitor compared to the percent phosphorylation of substrate in the absence of inhibitor. IC50's were derived using Xlfit 4.3 (IDBS, UK), 4 parameter logistic model 205: Y=(A+((B−A)/(1+((C/x)^D)))).

JAK2 = molecular target: T2, JAK2 (Homo sapiens, UniProt O60674); assay: Z'-LYTE kinase assay, JAK2 tyrosine phosphorylation activity
T2 construct: 5 μl of catalytic domain recombinant Kinase enzyme+Tyr peptide substrate (Invitrogen, Calif.); purchased Invitrogen
T2 sequence (O60674 849-1124 limits assumed): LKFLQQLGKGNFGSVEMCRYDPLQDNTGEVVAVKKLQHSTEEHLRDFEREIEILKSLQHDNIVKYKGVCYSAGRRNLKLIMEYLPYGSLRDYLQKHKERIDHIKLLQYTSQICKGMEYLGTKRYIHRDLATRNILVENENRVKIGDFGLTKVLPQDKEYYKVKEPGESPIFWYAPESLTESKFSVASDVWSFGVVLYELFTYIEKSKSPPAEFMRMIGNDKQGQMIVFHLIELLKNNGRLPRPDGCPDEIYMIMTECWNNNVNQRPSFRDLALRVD
Protocol: as §1, §2

JAK3 = molecular target: T3, JAK3 (Homo sapiens, UniProt P52333); assay: Z'-LYTE kinase assay, JAK3 tyrosine phosphorylation activity
T3 construct: 5 μl of catalytic domain recombinant Kinase enzyme+Tyr peptide substrate (Invitrogen, Calif.); purchased Invitrogen
T3 sequence (P52333 822-1111 limits assumed): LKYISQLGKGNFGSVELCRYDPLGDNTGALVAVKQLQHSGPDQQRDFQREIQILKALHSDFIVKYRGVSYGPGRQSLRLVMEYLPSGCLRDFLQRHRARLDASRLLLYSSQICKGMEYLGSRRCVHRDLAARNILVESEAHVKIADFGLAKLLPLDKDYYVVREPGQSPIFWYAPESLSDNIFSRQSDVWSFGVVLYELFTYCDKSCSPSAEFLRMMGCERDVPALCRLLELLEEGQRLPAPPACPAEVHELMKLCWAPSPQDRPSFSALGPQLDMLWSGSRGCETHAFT
Protocol: as §1, §2

TYK2 = molecular target: T4, TYK2 (Homo sapiens, UniProt P29597); assay: Z'-LYTE kinase assay, TYK2 tyrosine phosphorylation activity
T4 construct: 5 μl of catalytic domain recombinant Kinase enzyme+Tyr peptide substrate (Invitrogen, Calif.); purchased Invitrogen
T4 sequence (P29597 897-1176 limits assumed): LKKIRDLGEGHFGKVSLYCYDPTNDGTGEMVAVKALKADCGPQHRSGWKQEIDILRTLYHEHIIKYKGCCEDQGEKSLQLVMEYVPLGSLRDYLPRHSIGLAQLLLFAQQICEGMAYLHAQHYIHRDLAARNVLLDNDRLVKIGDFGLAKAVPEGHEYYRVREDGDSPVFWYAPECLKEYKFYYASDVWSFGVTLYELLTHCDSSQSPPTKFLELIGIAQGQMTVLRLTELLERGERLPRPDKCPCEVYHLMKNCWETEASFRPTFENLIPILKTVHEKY
Protocol: as §1, §2

T1 sequence (P23458 875-1153 limits assumed): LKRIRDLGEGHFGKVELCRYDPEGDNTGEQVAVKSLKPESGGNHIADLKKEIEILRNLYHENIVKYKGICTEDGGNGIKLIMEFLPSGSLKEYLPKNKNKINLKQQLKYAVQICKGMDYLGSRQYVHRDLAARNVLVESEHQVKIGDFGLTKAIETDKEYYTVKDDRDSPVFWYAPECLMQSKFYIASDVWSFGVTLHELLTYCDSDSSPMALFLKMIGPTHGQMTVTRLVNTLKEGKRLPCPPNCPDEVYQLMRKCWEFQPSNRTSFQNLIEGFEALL

Row | IC50 (JAK1) [nM] | IC50 (JAK2) [nM] | IC50 (JAK3) [nM] | IC50 (TYK2) [nM] | Compound
1 | > 1000 | > 1000 | 100 to 1000 | 100 to 1000 | CNC(=O)c1cnc(Nc2cccc(NC(=O)COC)c2)nc1NCc1ccccc1 [Example 113, 4-(benzylamino)-2-(3-(2-methoxyacetamido)phenylamino)-N-methylpyrimidine-5-carboxamide]
2 | 10 to 100 | 10 to 100 | 10 to 100 | 10 to 100 | CNC(=O)c1cnc(Nc2cccc(NC(=O)COC)c2)nc1NC1Cc2ccccc2C1 [Example 114, 4-(2,3-dihydro-1H-inden-2-ylamino)-2-(3-(2-methoxyacetamido)phenylamino)-N-methylpyrimidine-5-carboxamide]
3 | 10 to 100 | 10 to 100 | 10 to 100 | 10 to 100 | CC(=O)Nc1cccc(Nc2ncc(C(N)=O)c(NCC3CCCNC3)n2)c1 (stereo not drawn) [Example 116, 2-(3-acetamidophenylamino)-4-(piperidin-3-ylmethylamino)pyrimidine-5-carboxamide]
4 | 10 to 100 | 10 to 100 | 1 to 10 | 10 to 100 | CC(=O)Nc1cccc(Nc2ncc(C(N)=O)c(NCC3CCCN(C(=O)Nc4ccc(F)cc4)C3)n2)c1 (stereo not drawn) [Example 118, 2-(3-acetamidophenylamino)-4-((1-(4-fluorophenylcarbamoyl)piperidin-3-yl)methylamino)pyrimidine-5-carboxamide]
5 | 10 to 100 | 10 to 100 | 1 to 10 | 10 to 100 | CC(=O)Nc1cccc(Nc2ncc(C(N)=O)c(NCC3CCCN(S(C)(=O)=O)C3)n2)c1 (stereo not drawn) [Example 120, 2-(3-acetamidophenylamino)-4-((1-(methylsulfonyl)piperidin-3-yl)methylamino)pyrimidine-5-carboxamide]
6 | 100 to 1000 | 10 to 100 | 1 to 10 | 100 to 1000 | C[C@@H](Nc1nc(Nc2cccc(N(C)C(=O)N3CCCC3)c2)ncc1C(N)=O)c1ccccc1 [Example 122, (R)-2-(3-(N-methylpyrrolidine-1-carboxamido)phenylamino)-4-(1-phenylethylamino)pyrimidine-5-carboxamide]
7 | 10 to 100 | 10 to 100 | 1 to 10 | 1 to 10 | NC(=O)c1cnc(Nc2cccc(NC(=O)N3CCCC3)c2)nc1NCC1CC1 [Example 123, 4-(cyclopropylmethylamino)-2-(3-(pyrrolidine-1-carboxamido)phenylamino)pyrimidine-5-carboxamide]
8 | 10 to 100 | 10 to 100 | 1 to 10 | 1 to 10 | COCC(=O)Nc1cccc(Nc2ncc(C(N)=O)c(NCC3CC3)n2)c1 [Example 124, 4-(cyclopropylmethylamino)-2-(3-(2-methoxyacetamido)phenylamino)pyrimidine-5-carboxamide]
9 | 10 to 100 | 10 to 100 | 10 to 100 | 10 to 100 | COCC(=O)N(C)c1cccc(Nc2ncc(C(N)=O)c(NCC3CC3)n2)c1 [Example 125, 4-(cyclopropylmethylamino)-2-(3-(2-methoxy-N-methylacetamido)phenylamino)pyrimidine-5-carboxamide]
10 | 10 to 100 | 10 to 100 | 10 to 100 | 10 to 100 | CC(=O)N(C)c1cccc(Nc2ncc(C(N)=O)c(NCC3CC3)n2)c1 [Example 126, 4-(cyclopropylmethylamino)-2-(3-(N-methylacetamido)phenylamino)pyrimidine-5-carboxamide]
11 | 100 to 1000 | 10 to 100 | 10 to 100 | 100 to 1000 | CN(C(=O)N1CCCC1)c1cccc(Nc2ncc(C(N)=O)c(NCC3CC3)n2)c1 [Example 127, 4-(cyclopropylmethylamino)-2-(3-(N-methylpyrrolidine-1-carboxamido)phenylamino)pyrimidine-5-carboxamide]
12 | 100 to 1000 | 100 to 1000 | 10 to 100 | 10 to 100 | CNc1nc(Nc2cccc(NC(=O)N3CCCC3)c2)ncc1C(N)=O [Example 133, 4-(methylamino)-2-(3-(pyrrolidine-1-carboxamido)phenylamino)pyrimidine-5-carboxamide]
